# Numbering of substitutions follows the chain as printed.
# T1: chicken UDP-glucose dehydrogenase (Gallus gallus, UniProt Q5F3T9)
# T1 sequence (Q5F3T9 1-494): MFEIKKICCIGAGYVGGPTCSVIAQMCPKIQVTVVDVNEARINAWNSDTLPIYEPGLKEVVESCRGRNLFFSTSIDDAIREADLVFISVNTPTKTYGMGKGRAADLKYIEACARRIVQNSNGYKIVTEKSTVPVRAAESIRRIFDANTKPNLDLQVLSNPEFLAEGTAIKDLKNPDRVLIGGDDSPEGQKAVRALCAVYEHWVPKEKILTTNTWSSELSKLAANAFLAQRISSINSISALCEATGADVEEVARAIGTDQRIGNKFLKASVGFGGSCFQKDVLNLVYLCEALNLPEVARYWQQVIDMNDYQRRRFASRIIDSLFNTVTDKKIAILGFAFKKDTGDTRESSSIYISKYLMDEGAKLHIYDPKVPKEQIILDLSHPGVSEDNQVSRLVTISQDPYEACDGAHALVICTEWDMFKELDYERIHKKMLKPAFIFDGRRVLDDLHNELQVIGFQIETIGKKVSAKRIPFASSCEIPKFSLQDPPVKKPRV
# B1: SQV-4 protein that contained a histidine for arginine substitution at amino acid position 353: bacterially expressed mutant SQV-4 corresponding to the sqv-4 mutant allele n2827 (protein, UniProt Q19905 1-481, looked up, variant R353H)
# UDP-glucose 6-dehydrogenase: MTDQVFGKVSKVVCVGAGYVGGPTCAMIAHKCPHITVTVVDMNTAKIAEWNSDKLPIYEPGLDEIVFAARGRNLFFSSDIPKAIAEADLIFISVNTPTKMYGRGKGMAPDLKYVESVSRTIAQYAGGPKIVVEKSTVPVKAAESIGCILREAQKNNENLKFQVLSNPEFLAEGTAMKDLANPDRVLIGGESSPEGLQAVAELVRIYENWVPRNRIITTNTWSSELSKLVANAFLAQRISSINSISAVCEATGAEISEVAHAVGYDTRIGSKFLQASVGFGGSCFQKDVLSLVYLCESLNLPQVADYWQGVININNWQRRRFADKIIAELFNTVTDKKIAIFGFAFKKNTGDTHESSAIHVIKHLMEEHAKLSVYDPKVQKSQMLNDLASVTSAQDVERLITVESDPYAAARGAHAIVVLTEWDEFVELNYSQIHNDMQHPAAIFDGRLILDQKALREIGFRTFAIGTSPDQAYNLFGTAGY
# B2: wild-type SQV-4 protein: recombinant SQV-4 protein expressed in E. coli, soluble lysate fraction (protein, UniProt Q19905 1-481, looked up)
# UDP-glucose 6-dehydrogenase: B1 UDP-glucose 6-dehydrogenase with H353R
# Experiments:
# SQV-4 [1] = molecular target: T2, SQV-4 (Caenorhabditis elegans, UniProt Q19905, T2A); assay type: biochemical, C. elegans; details: for NAD+ reduction: UDP-glucose replaced, 100 μM NAD+ and 250 μM nucleotide sugar
# T2 construct: were used for PCR-amplification of the sqv-4 ORF, and the resulting product was digested with NcoI and XhoI and cloned into pET21d; made in house; host or cells: E. coli BL21 pLysS, pET21d; soluble fraction used without purification
# Description: (§1) The sqv-4 coding sequences corresponding to the wild-type, n2827, and n2840 alleles were cloned into the pET21d E. coli expression vector and transformed into BL21 pLysS. The oligonucleotides 5′-[…]-3′ (SEQ ID NO:53) and 5′-[…]-3′ (SEQ ID NO:54) were used to generate R353H n2827 and T4101 n2840 mutations, respectively, by site-directed mutagenesis. The oligonucleotides 5′-[…]-3′ (SEQ ID NO:55) and 5′-[…]-3′ (SEQ ID NO:56) were used for PCR-amplification of the sqv-4 ORF, and the resulting product was digested with NcoI and XhoI and cloned into pET21d. All three proteins have a threonine to alanine mutation in the second amino acid because of the addition of an NcoI site at the 5′ end. SQV-4 expression was induced by incubation with 1 mM IPTG for three to four hours at 37° C. E. coli were pelleted and resuspended in 50 mM Tris-HCl pH 7.5, 1 mM DTT, 1 mM EDTA, 1 mM PMSF, 2 μg/ml pepstatin A, and aprotinin and lysed using a French pressure cell. The soluble fraction was separated from the insoluble inclusion bodies by centrifugation at 12,000 g for 20 minutes.
# (§2) All assays were performed at room temperature (20 to 22° C.) in 50 mM Tris-HCl, 2 mM dithiothrietol (DTT), pH 8.7. The initial velocity of the reaction was determined from time points during the first 60 seconds after addition of the SQV-4 extract.
# [2] = molecular target: T3, Protein A-SQV-2 fusion protein (Caenorhabditis elegans, UniProt Q9N491); assay: Galactosyltransferase II assay, acceptor substrate specificity; assay type: biochemical, C. elegans; details: for Enzyme Activity: acceptor 5 mM, donor UDP-[3H]galactose; for acceptor for glycosylation by SQV-2: UDP-[3H]galactose with various acceptor substrates
# T3 construct: protein A (modified, secreted); made in house; host or cells: COS7 cells, transient transfection; purified from culture supernatant on IgG-agarose
# Protocol: We assayed a recombinant Protein A-SQV-2 fusion protein expressed in COS7 cells for galactosyltransferase II activity.
# Galactosyltransferase activity was assayed in vitro using UDP-[^3H]galactose together with various acceptor substrates.
# A sqv-2 coding sequence encoding amino acids 25 to 330 of SQV-2, thus lacking the transmembrane domain at the amino terminus, was cloned into pDEST-CMV-protA vector as follows. The oligonucleotides 5′-[…]-3′ (SEQ ID NO:45) and 5′-[…]-3′ (SEQ ID NO:46) were used as the primers for PCR-amplification, and the resulting product was digested with EcoRI and XhoI and cloned into pENTR3C. The Gateway LR cloning reaction (Invitrogen) was used to transfer the sqv-2 ORF lacking TM into the Gateway destination vector pDEST-CMV-protA to generate a modified amino-terminal protein A fusion protein using the CMV promoter. The plasmid pDEST-CMV-protA was constructed by cloning the Gateway C.1 reading frame cassette, from the manufacturer, into pRK5F10ProteinA (Wei et al., Proc. Natl. Acad. Sci. USA 90:3885-8, 1993), which was digested with EcoRI and blunted using dNTPs, Klenow fragment and T4 DNA polymerase. This plasmid was designed to express a secreted protein A-SQV-2 (amino acids 25-330) fusion protein in mammalian cells.
# COS7 cells were transiently transfected with pDEST-CMV-protA-sqv-2 using LIPOFECTAMINE (3:1 (w/w) liposome formulation of the polycationic lipid 2,3-dioleyloxy-N-[2(sperminecarboxamido)ethyl]-N,N-dimethyl-1-propanaminium trifluoroacetate (DOSPA) (Chemical Abstracts Registry name: N-[2-(2,5-bis[(3-aminopropyl)amino]-1-oxpentyl}amino)ethyl]-N,N-dimethyl-2,3-bis(9-octadecenyloxy)-1-propanaminium trifluoroacetate), and the neutral lipid dioleoyl phosphatidylethanolamine (DOPE) in membrane filtered water) (Life Technologies) in accordance with the manufacturer's instructions. […] After seventy-two hours of incubation, the fusion protein was recovered and purified from the cell culture supernatant by affinity chromatography using IgG-agarose (Wei et al., Proc. Natl. Acad. Sci. USA 90:3885-8, 1993).
# Galactosyltransferase II activity was assayed using UDP-[1-^3H]Gal (NEN Life Sciences Products, 12.8 Ci/mmol) and various mono- and di-saccharide acceptor substrates, including Xylβ-O-benzyl (Bn), Xylβ-O-naphthol, Galβ-O-naphthalenemethanol (NM), GalNAcβ-O-NM, GlcNAcβ-O-NM, Galβ,14Xylβ-O-Bn, Galβ1,3GlcNAc α-O-NM, Galβ1,3Galβ-O-NM, Galβ1,4GlcNAcβ-O-NM, Galβ1,3GlcNAcβ-O-NM, GlcNAcβ1,3Galβ-O-NM, Manaα,1,6Man α-O-decenyl (Lugemwa et al., J. Biol. Chem. 271:19159-65, 1996; Sarkar et al., Carbohydr Res 329:221-33, 2000; Brown et al., Bioorg. Med. Chem. 9:815-24, 2001). […] After incubation at room temperature for 3 hours, the reaction products were diluted with 1 mL of 0.5 M NaCl and applied to a Sep-Pak C18 (100 mg; Waters). After washing with 5 ml of 0.5 M NaCl and water, the radiolabeled products were eluted with 50% methanol, dried and counted by liquid scintillation.
# [3] = molecular target: T1, chicken UDP-glucose dehydrogenase; details: cited from earlier work
# [4] = molecular target: UDP-glucose dehydrogenase (Escherichia coli, UniProt P76373); details: cited from earlier work
# [5] = molecular target: Streptococcus pyogenes UDP-glucose dehydrogenase (Streptococcus pyogenes, UniProt P0C0F4); details: cited from earlier work
# SQV-4 [6] = molecular target: T4, SQV-4 (Caenorhabditis elegans, UniProt Q19905, R353H/T2A); assay type: biochemical, C. elegans; details: bacterially expressed mutant protein
# T4 construct: were used for PCR-amplification of the sqv-4 ORF, and the resulting product was digested with NcoI and XhoI and cloned into pET21d; made in house; host or cells: E. coli BL21 pLysS, pET21d; soluble fraction used without purification
# Description: as §1, §2
# T3 sequence (Q9N491 25-330): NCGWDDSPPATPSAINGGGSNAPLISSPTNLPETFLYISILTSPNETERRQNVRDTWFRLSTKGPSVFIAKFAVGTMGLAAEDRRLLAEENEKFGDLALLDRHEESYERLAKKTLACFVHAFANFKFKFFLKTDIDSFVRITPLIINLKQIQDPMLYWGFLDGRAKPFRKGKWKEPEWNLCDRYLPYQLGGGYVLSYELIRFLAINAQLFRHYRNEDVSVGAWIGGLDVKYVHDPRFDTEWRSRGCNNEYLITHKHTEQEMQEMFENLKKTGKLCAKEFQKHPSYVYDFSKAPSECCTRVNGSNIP
# T2 sequence (Q19905 whole entry T2A): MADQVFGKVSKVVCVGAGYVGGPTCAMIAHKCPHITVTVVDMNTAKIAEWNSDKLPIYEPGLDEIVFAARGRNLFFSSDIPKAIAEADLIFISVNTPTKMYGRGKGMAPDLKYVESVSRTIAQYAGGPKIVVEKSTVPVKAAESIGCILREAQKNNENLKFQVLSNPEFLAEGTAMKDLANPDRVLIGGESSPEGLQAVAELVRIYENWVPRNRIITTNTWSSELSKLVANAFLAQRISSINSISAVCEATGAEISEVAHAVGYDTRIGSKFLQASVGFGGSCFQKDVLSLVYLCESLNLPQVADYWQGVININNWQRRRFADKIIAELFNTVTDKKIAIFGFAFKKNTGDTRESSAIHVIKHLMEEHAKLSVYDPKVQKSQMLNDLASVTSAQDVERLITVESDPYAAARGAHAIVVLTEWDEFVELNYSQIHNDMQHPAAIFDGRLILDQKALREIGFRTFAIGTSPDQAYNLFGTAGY
# Streptococcus pyogenes UDP-glucose dehydrogenase, sequence (P0C0F4 whole entry): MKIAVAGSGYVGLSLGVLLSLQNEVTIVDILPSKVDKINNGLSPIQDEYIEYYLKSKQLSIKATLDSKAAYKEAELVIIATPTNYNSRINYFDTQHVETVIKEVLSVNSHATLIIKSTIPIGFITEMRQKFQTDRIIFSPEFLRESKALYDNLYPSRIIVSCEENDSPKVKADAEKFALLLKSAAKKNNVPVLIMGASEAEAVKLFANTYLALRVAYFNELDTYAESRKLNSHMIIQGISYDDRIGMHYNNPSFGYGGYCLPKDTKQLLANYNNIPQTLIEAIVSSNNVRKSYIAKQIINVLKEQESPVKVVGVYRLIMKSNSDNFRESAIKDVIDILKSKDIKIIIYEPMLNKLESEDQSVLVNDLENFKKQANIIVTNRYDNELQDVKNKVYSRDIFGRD
# T4 sequence (Q19905 whole entry T2A/R353H): as the sequence (Q19905 whole entry T2A) above, with R353H counted along it
Molecule,NAD+ reduction (SQV-4 [1]),Enzyme Activity [2] [pmol/h/mL medium],other results
Nc1ncnc2c1ncn2[C@@H]1O[C@H](COP(=O)(O)OP(=O)(O)O[C@H]2O[C@H](CO)[C@@H](O)[C@H](O)[C@H]2O)[C@@H](O)[C@H]1O [ADP-glucose],undetectable,–,–
Nc1ccn([C@@H]2O[C@H](COP(=O)(O)OP(=O)(O)O[C@H]3O[C@H](CO)[C@@H](O)[C@H](O)[C@H]3O)[C@@H](O)[C@H]2O)c(=O)n1 [CDP-glucose],undetectable,–,–
Nc1nc2c(ncn2[C@@H]2O[C@H](COP(=O)(O)OP(=O)(O)O[C@H]3O[C@H](CO)[C@@H](O)[C@H](O)[C@H]3O)[C@@H](O)[C@H]2O)c(=O)[nH]1 [GDP-glucose],undetectable,–,–
CC(=O)N[C@H]1[C@H](OCc2ccccc2)O[C@H](CO)[C@H](O)[C@@H]1O [GalNAcβ1-O-Bn],–,0,–
"OC[C@H]1O[C@@H](O[C@@H]2CO[C@@H](OCc3ccccc3)[C@H](O)[C@H]2O)[C@H](O)[C@@H](O)[C@H]1O [Galβ1,4Xylβ1-O-Bn, galactose-(β1,4)-xylose(β1)-O-benzyl]",–,2660,acceptor for glycosylation by SQV-2 [2]: specifically catalyzed addition of galactose
"C=CCCCCCCCCO[C@H]1O[C@H](CO[C@H]2O[C@H](CO)[C@@H](O)[C@H](O)[C@@H]2O)[C@@H](O)[C@H](O)[C@@H]1O [Manα1,6Manα1-O—C10]",–,0,–
NC(=O)c1ccc[n+]([C@@H]2O[C@H](COP(=O)([O-])OP(=O)(O)OC[C@H]3O[C@@H](n4cnc5c(N)ncnc54)[C@H](O)[C@@H]3O)[C@@H](O)[C@H]2O)c1 [NAD^+],–,–,"Km (SQV-4 [1]; double-reciprocal plot of initial velocities, bacterially expressed SQV-4): 200 µM; Km [3]: 900 µM; Km [4]: 50 µM; Km [5]: 60 µM"
Cc1cn([C@H]2C[C@H](O)[C@@H](COP(=O)(O)OP(=O)(O)O[C@H]3O[C@H](CO)[C@@H](O)[C@H](O)[C@H]3O)O2)c(=O)[nH]c1=O [TDP-glucose],undetectable,–,–
CC(=O)N[C@H]1[C@@H](OP(=O)(O)OP(=O)(O)OC[C@H]2O[C@@H](n3ccc(=O)[nH]c3=O)[C@H](O)[C@@H]2O)O[C@H](CO)[C@@H](O)[C@@H]1O [UDP-N-acetyl-glucosamine],undetectable,–,–
"O[C@@H]1[C@@H](O)[C@H](OCc2ccccc2)OC[C@H]1O [Xylβ1-O-Bn, xylose-(β1)-O-benzyl]",–,0,acceptor for glycosylation by SQV-2 [2]: None of the other acceptors tested acted as an acceptor
"O[C@@H]1[C@@H](O)[C@H](OCc2ccc3ccccc3c2)OC[C@H]1O [Xylβ1-O-naphthol, xylose-(β1)-O-naphthalenemethanol]",–,0,acceptor for glycosylation by SQV-2 [2]: None of the other acceptors tested acted as an acceptor
B1,–,–,decrease in UDP-glucose dehydrogenase activity (SQV-4 [6]): greater than 20 fold
B2,–,–,UDP-glucose dehydrogenase activity increase (SQV-4 [1]; lysates vs lysates with vector alone or mutant SQV-4 protein): at least 20 fold

# Reference: patent US7442501B2, “SQV nucleic acids and polypeptides” (Massachusetts Institute of Technology, priority 2002, dated 2008)
